Experimental data taken from paper PMC13022235 (Nature Communications, 2026).
Numbering of substitutions follows the chain as printed. pIC50: −log10 of the molar value. “Also recorded” adds a separate entry of the source.

What was measured:
[1] = molecular target: T1, hGlyT2^W215F (Homo sapiens, UniProt Q9Y345, W215F); format: cell-based
T1 sequence (Q9Y345 1-797 W215F): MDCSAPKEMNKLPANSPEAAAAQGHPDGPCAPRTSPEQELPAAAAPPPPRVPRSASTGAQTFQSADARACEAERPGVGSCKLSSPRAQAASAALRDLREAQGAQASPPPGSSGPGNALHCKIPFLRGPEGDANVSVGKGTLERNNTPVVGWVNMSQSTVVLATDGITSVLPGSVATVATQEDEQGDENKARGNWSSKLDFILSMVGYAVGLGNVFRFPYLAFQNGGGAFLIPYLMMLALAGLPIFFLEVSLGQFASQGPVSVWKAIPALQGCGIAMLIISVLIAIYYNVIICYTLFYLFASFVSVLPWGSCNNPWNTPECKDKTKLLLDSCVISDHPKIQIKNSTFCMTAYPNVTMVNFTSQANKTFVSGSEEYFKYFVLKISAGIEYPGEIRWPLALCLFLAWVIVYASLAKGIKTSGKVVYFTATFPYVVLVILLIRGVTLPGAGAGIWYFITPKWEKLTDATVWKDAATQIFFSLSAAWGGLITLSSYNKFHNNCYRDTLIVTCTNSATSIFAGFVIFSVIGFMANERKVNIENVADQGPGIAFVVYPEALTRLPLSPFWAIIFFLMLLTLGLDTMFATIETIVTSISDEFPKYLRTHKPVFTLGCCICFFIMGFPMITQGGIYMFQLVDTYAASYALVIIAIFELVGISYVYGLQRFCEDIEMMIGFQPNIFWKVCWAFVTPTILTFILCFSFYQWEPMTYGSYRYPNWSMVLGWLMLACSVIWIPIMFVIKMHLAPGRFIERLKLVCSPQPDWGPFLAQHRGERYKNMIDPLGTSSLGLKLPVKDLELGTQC

[2] = molecular target: T2, hGlyT2^WT (Homo sapiens, UniProt Q9Y345); assay: Reversibility from inhibition; format: cell-based
T2 sequence (Q9Y345 1-797): T1 sequence (Q9Y345 1-797 W215F) with F215W

[3] = system: mice; conditions: cited from earlier work
[4] = molecular target: T1, hGlyT2^W215F; assay: Reversibility from inhibition; format: cell-based
[5] = molecular target: T3, hGlyT2^D633E (Homo sapiens, UniProt Q9Y345, D633E); format: cell-based; conditions: D633E mutation
T3 sequence (Q9Y345 1-797 D633E): T1 sequence (Q9Y345 1-797 W215F) with F215W, D633E

[6] = system: GlyT2; conditions: read-out: IC50 for GlyT2; cited from earlier work
[7] = molecular target: T4, hGlyT1^WT (Homo sapiens, UniProt P48067); assay: Two-electrode voltage clamp, GlyT1 selectivity test in oocytes; format: cell-based; conditions: 10 µM
T4 sequence (P48067 1-706): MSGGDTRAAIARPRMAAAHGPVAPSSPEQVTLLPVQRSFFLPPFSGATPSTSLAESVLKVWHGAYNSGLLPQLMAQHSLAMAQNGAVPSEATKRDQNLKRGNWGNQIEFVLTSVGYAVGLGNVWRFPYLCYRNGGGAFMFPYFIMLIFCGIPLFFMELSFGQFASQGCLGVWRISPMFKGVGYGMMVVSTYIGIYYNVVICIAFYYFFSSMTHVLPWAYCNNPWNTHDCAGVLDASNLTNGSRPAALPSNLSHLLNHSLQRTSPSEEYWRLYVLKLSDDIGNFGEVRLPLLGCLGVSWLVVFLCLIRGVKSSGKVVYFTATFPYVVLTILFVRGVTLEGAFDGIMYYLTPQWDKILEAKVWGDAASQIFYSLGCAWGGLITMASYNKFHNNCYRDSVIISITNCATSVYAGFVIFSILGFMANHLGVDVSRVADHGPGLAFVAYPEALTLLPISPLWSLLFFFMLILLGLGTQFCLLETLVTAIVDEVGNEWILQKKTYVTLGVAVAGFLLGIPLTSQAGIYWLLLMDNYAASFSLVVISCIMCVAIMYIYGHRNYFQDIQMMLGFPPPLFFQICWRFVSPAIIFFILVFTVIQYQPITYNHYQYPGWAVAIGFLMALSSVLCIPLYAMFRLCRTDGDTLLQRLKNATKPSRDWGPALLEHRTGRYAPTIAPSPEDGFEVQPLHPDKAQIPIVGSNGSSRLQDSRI

[8] = molecular target: hNET (Homo sapiens, UniProt P23975); assay: Cerep binding assay, displacement of 3H-nisoxetine; conditions: 10 μM
hNET, sequence (P23975 whole entry): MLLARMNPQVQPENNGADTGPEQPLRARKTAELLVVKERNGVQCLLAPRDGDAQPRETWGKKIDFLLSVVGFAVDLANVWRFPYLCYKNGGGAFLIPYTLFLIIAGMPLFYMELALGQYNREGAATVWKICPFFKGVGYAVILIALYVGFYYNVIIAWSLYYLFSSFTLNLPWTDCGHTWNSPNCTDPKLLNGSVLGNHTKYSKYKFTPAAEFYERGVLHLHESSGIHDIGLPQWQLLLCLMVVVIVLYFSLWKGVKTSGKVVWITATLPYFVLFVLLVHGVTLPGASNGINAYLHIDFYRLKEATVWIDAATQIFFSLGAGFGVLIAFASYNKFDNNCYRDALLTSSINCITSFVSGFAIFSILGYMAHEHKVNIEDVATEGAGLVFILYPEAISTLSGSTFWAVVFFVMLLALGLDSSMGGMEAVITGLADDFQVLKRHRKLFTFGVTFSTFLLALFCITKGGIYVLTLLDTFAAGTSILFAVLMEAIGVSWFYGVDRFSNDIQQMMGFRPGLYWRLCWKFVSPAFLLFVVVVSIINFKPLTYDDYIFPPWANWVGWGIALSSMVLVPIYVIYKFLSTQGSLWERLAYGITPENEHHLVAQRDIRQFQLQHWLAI

[9] = system: partial sciatic nerve ligation (PSNL) mice; assay: PSNL model, mechanical allodynia; format: in vivo, mouse; conditions: 50 mg/kg i.p.
[10] = PK Study 2: in-life plasma and CNS drug exposure after 50 mg/kg i.p.; format: in vivo, male C57BL/6 mice; conditions: 30 min
[11] = system: chronic constriction injury (CCI) mice; assay: CCI model, cold allodynia; format: in vivo, mouse; conditions: for reduction of cold allodynia vs vehicle: acetone
[12] = system: naïve mice; assay: Accelerating rotarod, motor coordination; format: in vivo, mouse
[13] = system: male C57BL/6 J mice; assay: Conditioned place preference; format: in vivo, mouse
[14] = molecular target: T2, hGlyT2^WT; format: cell-based; conditions: glycine dose-responses with RPI-GLYT2-82
[15] = molecular target: hDAT (Homo sapiens, UniProt Q01959); assay: Cerep binding assay, displacement of 3H-BTCP; conditions: 10 μM
hDAT, sequence (Q01959 whole entry): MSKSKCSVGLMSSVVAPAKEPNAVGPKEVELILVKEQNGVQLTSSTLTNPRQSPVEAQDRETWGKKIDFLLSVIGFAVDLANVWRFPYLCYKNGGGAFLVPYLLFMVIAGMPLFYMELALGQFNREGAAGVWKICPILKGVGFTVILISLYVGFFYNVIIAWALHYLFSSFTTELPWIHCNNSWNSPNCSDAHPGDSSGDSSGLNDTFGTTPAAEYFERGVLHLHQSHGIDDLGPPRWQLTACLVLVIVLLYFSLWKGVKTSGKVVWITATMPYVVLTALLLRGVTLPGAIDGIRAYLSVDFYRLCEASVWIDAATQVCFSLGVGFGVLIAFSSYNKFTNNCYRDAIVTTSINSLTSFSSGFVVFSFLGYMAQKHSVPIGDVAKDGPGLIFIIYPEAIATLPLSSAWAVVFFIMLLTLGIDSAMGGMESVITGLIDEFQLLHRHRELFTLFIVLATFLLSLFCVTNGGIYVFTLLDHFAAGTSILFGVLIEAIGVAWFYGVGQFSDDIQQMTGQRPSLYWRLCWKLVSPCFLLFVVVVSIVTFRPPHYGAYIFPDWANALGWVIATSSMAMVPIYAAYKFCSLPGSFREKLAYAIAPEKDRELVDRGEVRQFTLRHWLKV

[16] = system: mice; assay: Side effect scoring; format: in vivo, mouse; conditions: 250 mg/kg i.p.
[17] = system: naïve, uninjured mice; assay: Whole-body plethysmography; format: in vivo, mouse
[18] = system: chronic constriction injury (CCI) mice; assay: CCI model, mechanical allodynia; format: in vivo, mouse
[19] = molecular target: T3, hGlyT2^D633E; assay: Reversibility from inhibition; format: cell-based; conditions: GlyT2^D633E

COc1cc(C(=O)NCC2(N(C)C)CCCC2)cc(OC)c1OCc1ccccc1 [ORG25543, 4-(benzyloxy)-N-{[1-(dimethylamino)cyclopentyl]methyl}−3,5-dimethoxybenzamide]
decrease in potency of inhibition vs WT ([1]; W215F mutation): ~ three-fold | reversibility of inhibition ([2]; hGlyT2, washout 30 min): prolonged inhibitory effects with minimal restoration of glycine-induced currents | currents restored, % of pre-inhibitor levels ([2]; hGlyT2^WT, 30 minutes washout): 12.5% | mechanical allodynia ([3]; 50 mg/kg): reversed mechanical allodynia | side effects ([3]; 50 mg/kg): near-complete loss of rotarod performance, seizures and in one case, lethality | effects on inflammatory and acute nociceptive pain thresholds [3]: no effects on inflammatory and acute nociceptive pain thresholds | effect of mutation on washout ([4]; hGlyT2^W215F): significantly increased the rate of ORG25543 washout | decrease in potency of inhibition vs WT [5]: ~ 14 fold

CCCCOc1c(OC)cc(C(=O)NCC2(N(C)C)CCOCC2)cc1OC [opiranserin]
pIC50 [6]: 6.07

CN(C)C1(CNC(=O)c2ccc3c(c2)CCN3C(=O)c2ccccc2)CCOCC1 [RPI-GLYT2-82, 1-benzoyl-N-((4-(dimethylamino)tetrahydro-2H-pyran-4-yl)methyl)indoline-5-carboxamide]
pIC50 [1]: < 4.52 | effect on GlyT1 [7]: minimal effect on GlyT1 | displacement of 3H-nisoxetine from hNET / inhibition [8]: < 5% | reduction of mechanical allodynia vs vehicle [9]: significant at 90 minutes and 2-hours post-injection compared to vehicle | Cu,b, calculated unbound concentration in brain [10]: 597.89 nM | time of peak anti-allodynia effects, cold allodynia ([11]; 50 and 100 mg/kg i.p.): ≤ 2 h | reduction of cold allodynia vs vehicle ([11]; 50 and 100 mg/kg i.p.): significantly reduced cold allodynia between 0.5 and 6-hours postinjection compared to vehicle | neuromotor effects / muscle weakness ([12]; 50 mg/kg, rotarod, grip strength, sedation): No deficits were observed; also recorded: not associated with adverse neuromotor effects or muscle weakness | initial reduction in baseline rotarod performance ([12]; 250 mg/kg i.p.): 61% | conditioned place preference ([13]; 50 and 150 mg/kg i.p.): no significant preference | washout ([4]; GlyT2^W215F): almost immediate | mechanism of inhibition [14]: non-competitive inhibitor | displacement of 3H-BTCP from hDAT / inhibition [15]: ~ 20% | decrease in potency of inhibition vs WT [5]: > 18 fold | sedation [16]: transient sedation, which was most apparent in the first 15–30 minutes and fully recovered by 90 minutes | respiration ([17]; 50 mg/kg): did not change respiration frequency, minute volume (MVb), or tidal volume (TVb) | respiration ([17]; 250 mg/kg i.p.): transient changes in respiratory frequency and MVb in the first hour, and TVb in the first 30 min | efficacy against mechanical allodynia vs vehicle ([18]; 50 mg/kg i.p.): significant at 2 and 3 hours post-injection compared to vehicle | efficacy against mechanical allodynia vs vehicle ([18]; 100 mg/kg i.p.): showed a similar trend at 2 and 3 hours | anti-allodynia, time of maximum efficacy ([18]; von Frey, 50 and 100 mg/kg i.p.): maximum efficacy between 90 min and 3 hours post-administration | washout [19]: almost immediate

NCC1(CC(=O)O)CCCCC1 [Gabapentin, reference compound]
reduction of cold allodynia vs vehicle ([11]; gabapentin 100 mg/kg): significant at 1-6 hours

CN1CC[C@]23c4c5ccc(O)c4O[C@H]2[C@@H](O)C=C[C@H]3[C@H]1C5 [Morphine, reference compound]
conditioned place preference ([13]; morphine 10 mg/kg i.p.): significant increase in preference for the paired chamber

CCCCCCCC/C=C\CCCCCCCC(=O)N[C@H](CCCCN)C(=O)O [oleoyl-D-lysine]
effects on inflammatory and acute nociceptive pain thresholds [3]: no effects on inflammatory and acute nociceptive pain thresholds
